# Measurements: patent publication US10576062B2, “Carbamoyloxymethyl triazole cyclohexyl acids as LPA antagonists” (Bristol-Myers Squibb Company, priority 2016, dated 2020)
# Like-named read-outs stand apart in the source and are kept apart here.
# Tests used:
# [1] = tested on: CD-1 female mice; experiment: LPA challenge with plasma histamine evaluation (acute in vivo histamine assay); parameters: species or system mouse; settings: 3 mg/kg dose; for histamine (change of plasma histamine after LPA challenge): CD-1 mice, p.o. 2 hours prior to LPA challenge
# Description: LPA Challenge with Plasma Histamine Evaluation.
# Compound is dosed orally p.o. 2 hours to CD-1 female mice prior to the LPA challenge. The mice are then dosed via tail vein (IV) with 0.15 mL of LPA in 0.1% BSA/PBS ([…]). Exactly 2 minutes following the LPA challenge, the mice are euthanized by decapitation and the trunk blood is collected. These samples are collectively centrifuged and individual 75 μL samples are frozen at −20° C. until the time of the histamine assay.
# The plasma histamine analysis was run by standard EIA (Enzyme Immunoassay) methods. Plasma samples were thawed and diluted 1:30 in 0.1% BSA in PBS. The EIA protocol for histamine analysis as outlined by the manufacturer was followed (Histamine EIA, Oxford Biomedical Research, EA #31).
# The LPA used in the assay is formulated as follows: LPA (1-oleoyl-2-hydroxy-sn-glycero-3-phosphate (sodium salt), 857130P, Avanti Polar Lipids) is prepared in 0.1% BSA/PBS for total concentration of 2 μg/μL. 13 mg of LPA is weighed and 6.5 mL 0.1% BSA added, vortexed and sonicated for ˜1 hour until a clear solution is achieved.
# [2] = target: T1, human LPA1 (Homo sapiens, UniProt Q92633); experiment: LPA1 functional antagonist assay (LPA-induced calcium flux); type: cell-based; settings: read-out: hLPA1 IC50
# T1 construct: expressed in transfected cells; host or cells: Chinese hamster ovary (CHO) cells
# Outline: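 CHO cells overexpressing human LPA1, loaded with calcium dye 30 min at 37° C, were preincubated 20 min at room temperature with compound (0.08 nM–5 μM, 0.5% DMSO) in HBSS/20 mM HEPES/0.1% fatty acid-free BSA.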
# [3] = tested on: nerve-injured mice; settings: pretreatment; cited from earlier work
# [4] = tested on: pancreatic cancer cell lines; settings: cited from earlier work
# [5] = tested on: mouse epithelial renal cell line, MCT; settings: MCT cells, co-treatment with LPA; cited from earlier work
# [6] = tested on: UUO mice; settings: UUO mice treated with the antagonist; cited from earlier work
# [7] = tested on: human foetal lung fibroblasts; settings: cited from earlier work
# [8] = CHO cells overexpressing human LPA1, inhibition of calcium flux induced by 10 nM LPA
# T1 sequence (Q92633 whole entry): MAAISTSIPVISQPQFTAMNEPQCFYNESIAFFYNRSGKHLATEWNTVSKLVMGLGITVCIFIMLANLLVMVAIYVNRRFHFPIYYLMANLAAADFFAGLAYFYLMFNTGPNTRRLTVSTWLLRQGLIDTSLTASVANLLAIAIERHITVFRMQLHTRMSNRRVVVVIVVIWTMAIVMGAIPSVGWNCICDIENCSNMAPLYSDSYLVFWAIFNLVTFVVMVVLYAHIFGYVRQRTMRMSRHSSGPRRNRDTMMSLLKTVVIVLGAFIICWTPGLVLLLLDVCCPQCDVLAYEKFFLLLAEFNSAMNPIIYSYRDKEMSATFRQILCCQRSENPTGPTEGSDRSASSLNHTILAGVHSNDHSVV
structure (smiles),measurement,setting,value
"Cc1nc(-c2nnn(C)c2COC(=O)N(C)C2CCCC2)ccc1O[C@H]1CCC[C@H](C(=O)O)C1 [Example 1, (1S,3S)-3-((6-(5-(((cyclopentyl(methyl)carbamoyl)oxy)methyl)-1-methyl-1H-1,2,3-triazol-4-yl)-2-methylpyridin-3-yl)oxy)cyclohexane-1-carboxylic Acid]",histamine (change of plasma histamine after LPA challenge),[1],−97%
"CN(C(=O)OCc1c(-c2ccc(O[C@H]3CCC[C@H](C(=O)O)C3)cc2)nnn1C)C1CCCC1 [Example 5, (1S,3S)-3-(4-(5-(((Cyclopentyl(methyl)carbamoyl)oxy)methyl)-1-methyl-1H-1,2,3-triazol-4-yl)phenoxy)cyclohexanecarboxylic acid]",histamine (change of plasma histamine after LPA challenge),[1],−90%
"C[C@H](C1CC1)N(C)C(=O)OCc1c(-c2ccc(O[C@H]3CCC[C@H](C(=O)O)C3)cc2)nnn1C [Example 51, (1S,3S)-3-(4-(5-(((((R)-1-cyclopropylethyl)(methyl)carbamoyl)oxy)methyl)-1-methyl-1H-1,2,3-triazol-4-yl)phenoxy)cyclohexane-1-carboxylic acid]",In vivo acute histamine assay: % histamine,[1],−73%
same,IC50,[2],24 nM
"CN(Cc1ccccc1)C(=O)OCc1c(-c2ccc(O[C@H]3CCC[C@H](C(=O)O)C3)c(C#N)n2)nnn1C [Example 290, (1S,3S)-3-((6-(5-(((benzyl(methyl)carbamoyl)oxy)methyl)-1-methyl-1H-1,2,3-triazol-4-yl)-2-cyanopyridin-3-yl)oxy)cyclohexane-1-carboxylic acid]",IC50,[2]; [8],2 nM
"CCCCN(C)C(=O)OCc1c(-c2ccc(O[C@H]3CCC[C@H](C(=O)O)C3)c(C#N)n2)nnn1C [Example 291, (1S,3S)-3-((6-(5-(((butyl(methyl)carbamoyl)oxy)methyl)-1-methyl-1H-1,2,3-triazol-4-yl)-2-cyanopyridin-3-yl)oxy)cyclohexane-1-carboxylic acid]",IC50,[2]; [8],15 nM
"CN(CC1CCC1)C(=O)OCc1c(-c2ccc(O[C@H]3CCC[C@H](C(=O)O)C3)c(C#N)n2)nnn1C [Example 292, (1S,3S)-3-((2-cyano-6-(5-((((cyclobutylmethyl)(methyl)carbamoyl)oxy)methyl)-1-methyl-1H-1,2,3-triazol-4-yl)pyridin-3-yl)oxy)cyclohexane-1-carboxylic acid]",IC50,[2]; [8],20 nM
"CN(C(=O)OCc1c(-c2ccc(O[C@H]3CCC[C@H](C(=O)O)C3)c(C#N)n2)nnn1C)C1CCC1 [Example 293, (1S,3S)-3-((2-cyano-6-(5-(((cyclobutyl(methyl)carbamoyl)oxy)methyl)-1-methyl-1H-1,2,3-triazol-4-yl)pyridin-3-yl)oxy)cyclohexane-1-carboxylic acid]",IC50,[2]; [8],23 nM
"CN(C(=O)OCc1c(-c2ccc(O[C@H]3CCC[C@H](C(=O)O)C3)c(C#N)n2)nnn1C)C1CCCC1 [Example 294, (1S,3S)-3-((2-cyano-6-(5-(((cyclopentyl(methyl)carbamoyl)oxy)methyl)-1-methyl-1H-1,2,3-triazol-4-yl)pyridin-3-yl)oxy)cyclohexane-1-carboxylic acid]",IC50,[2]; [8],15 nM
C[C@@H](N)[C@H]1CC[C@H](C(=O)Nc2ccncc2)CC1 [Example Y-27632],allodynia and hyperalgesia,[3],completely abolished
Cc1noc(-c2ccc(CSCCC(=O)O)cc2)c1NC(=O)OC(C)c1ccccc1Cl (stereo not drawn) [Ki16425],LPA-induced and ascites-induced invasion activity,[4]; highly peritoneal metastatic pancreatic cancer cell line,blocked
same,in vitro migration in response to LPA and peritoneal fluid (ascites) from pancreatic cancer patients,[4]; pancreatic cancer cell lines,effectively blocked
same,LPA-induced increase in expression of CTGF,[5],almost completely suppressed
same,development of renal fibrosis in UUO mice,[6],closely resembled the profile of LPA1 (−/−) mice
same,chemotaxis of human foetal lung fibroblasts induced by BAL from IPF patients,[7],blocked
